Series [1] is described as follows: Aqueous solubility of the compound in phosphate buffer by turbidimetric method. The series is classed as physicochemical.
Series [2] has as its target T1, Glucose-6-phosphate 1-dehydrogenase (Homo sapiens, UniProt P11413). In words: Ratio of IC50 for G6PD in HEK293T cells to IC50 for human recombinant G6PD expressed in Escherichia coli JM109 (DE3) cells. The note with it: HEK-293T.
Series [3] deals with T1, Glucose-6-phosphate 1-dehydrogenase. In words: Inhibition of human recombinant N-terminal His tagged G6PD expressed in Escherichia coli JM109 (DE3) cells assessed as production of NADPH after 30 mins by Amplite fluorimetric assay.
For series [4] the target is unchanged. The experiment in a line: Inhibition of G6PD in HEK293T cells assessed as accumulation of 6-phosphogluconate after 5 hrs by LC-MS/MS analysis using 6-aminonicotinamide. The series is classed as cell-based, HEK-293T.
Series [5] is described as follows: Permeability of the compound from apical to basolateral side of human Caco2 cells. The series is classed as ADME, cell-based. The note with it: Caco-2, read-out: permeability.
Series [6] can be described thus: Efflux ratio of permeability of the compound from basolateral to apical side over apical to basolateral side of human Caco2 cells. The series is classed as ADME, cell-based. The note with it: Caco-2.
For a further series, the target named is Cytochrome P450 2D6 (Homo sapiens, UniProt P10635). In words: Inhibition of CYP2D6 at > 25 uM. The series is classed as ADME.
Chain of Cytochrome P450 2D6 (P10635 whole entry): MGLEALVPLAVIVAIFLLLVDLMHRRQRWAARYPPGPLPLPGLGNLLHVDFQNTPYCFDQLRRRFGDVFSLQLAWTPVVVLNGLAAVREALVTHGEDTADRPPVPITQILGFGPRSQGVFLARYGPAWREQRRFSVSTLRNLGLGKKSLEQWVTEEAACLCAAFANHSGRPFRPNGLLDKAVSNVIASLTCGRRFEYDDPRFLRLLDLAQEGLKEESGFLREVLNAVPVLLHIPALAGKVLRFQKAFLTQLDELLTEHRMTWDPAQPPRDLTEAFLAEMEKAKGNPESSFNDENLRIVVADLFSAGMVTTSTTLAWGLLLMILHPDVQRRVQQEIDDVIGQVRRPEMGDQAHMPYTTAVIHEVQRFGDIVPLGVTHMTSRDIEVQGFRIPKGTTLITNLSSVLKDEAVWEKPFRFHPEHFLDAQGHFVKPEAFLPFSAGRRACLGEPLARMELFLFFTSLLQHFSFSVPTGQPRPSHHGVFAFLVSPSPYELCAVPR
The target in the next series is Cytochrome P450 2C9 (Homo sapiens, UniProt P11712). The experiment in a line: Inhibition of CYP2C9 at > 25 uM. The series is classed as ADME.
Chain of Cytochrome P450 2C9 (P11712 whole entry): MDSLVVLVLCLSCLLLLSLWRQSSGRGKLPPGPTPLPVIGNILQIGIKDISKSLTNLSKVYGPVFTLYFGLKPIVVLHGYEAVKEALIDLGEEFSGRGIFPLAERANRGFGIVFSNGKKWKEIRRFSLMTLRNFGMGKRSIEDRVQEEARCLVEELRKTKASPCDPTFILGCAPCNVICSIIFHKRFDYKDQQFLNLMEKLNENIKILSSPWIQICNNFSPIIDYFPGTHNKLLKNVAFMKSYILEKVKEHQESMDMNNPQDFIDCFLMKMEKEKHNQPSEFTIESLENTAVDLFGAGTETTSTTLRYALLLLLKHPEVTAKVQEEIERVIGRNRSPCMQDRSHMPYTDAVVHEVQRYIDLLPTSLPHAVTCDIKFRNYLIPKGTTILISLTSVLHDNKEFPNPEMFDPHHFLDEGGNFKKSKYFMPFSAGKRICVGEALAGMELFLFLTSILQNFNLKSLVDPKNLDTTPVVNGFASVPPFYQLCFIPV
The target in the next series is Cytochrome P450 3A4 (Homo sapiens, UniProt P08684). In words: Inhibition of CYP3A4 at > 25 uM. The series is classed as ADME.
Chain of Cytochrome P450 3A4 (P08684 whole entry): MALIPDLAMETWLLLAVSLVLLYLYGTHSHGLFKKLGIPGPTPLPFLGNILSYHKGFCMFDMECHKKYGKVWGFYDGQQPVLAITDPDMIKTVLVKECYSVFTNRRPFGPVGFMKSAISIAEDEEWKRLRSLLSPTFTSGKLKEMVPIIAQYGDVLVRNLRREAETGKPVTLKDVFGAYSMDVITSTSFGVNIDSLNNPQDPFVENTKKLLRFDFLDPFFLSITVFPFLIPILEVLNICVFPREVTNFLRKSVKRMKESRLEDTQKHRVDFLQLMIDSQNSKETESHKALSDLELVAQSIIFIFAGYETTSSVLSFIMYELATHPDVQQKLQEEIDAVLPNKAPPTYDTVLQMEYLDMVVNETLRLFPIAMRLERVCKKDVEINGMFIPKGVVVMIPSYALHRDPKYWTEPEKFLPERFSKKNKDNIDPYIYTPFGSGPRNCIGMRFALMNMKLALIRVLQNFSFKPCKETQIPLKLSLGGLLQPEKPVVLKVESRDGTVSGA
The target of a further series is Cytochrome P450 2C19 (Homo sapiens, UniProt P33261). In words: Inhibition of CYP2C19 at > 25 uM. The series is classed as ADME.
Chain of Cytochrome P450 2C19 (P33261 whole entry): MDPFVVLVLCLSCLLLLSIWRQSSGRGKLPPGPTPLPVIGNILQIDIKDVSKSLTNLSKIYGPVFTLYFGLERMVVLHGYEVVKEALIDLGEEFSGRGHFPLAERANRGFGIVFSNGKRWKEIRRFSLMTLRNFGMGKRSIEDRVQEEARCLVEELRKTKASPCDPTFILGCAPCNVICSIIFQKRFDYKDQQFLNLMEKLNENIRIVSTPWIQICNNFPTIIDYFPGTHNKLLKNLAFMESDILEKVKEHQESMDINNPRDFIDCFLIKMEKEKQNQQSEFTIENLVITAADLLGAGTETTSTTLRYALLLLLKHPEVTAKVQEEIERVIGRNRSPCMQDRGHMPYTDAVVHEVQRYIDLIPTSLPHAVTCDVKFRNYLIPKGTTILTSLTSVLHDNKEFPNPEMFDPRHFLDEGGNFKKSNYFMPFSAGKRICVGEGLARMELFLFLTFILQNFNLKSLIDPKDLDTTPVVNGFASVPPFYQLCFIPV
The target of a further series is T2, Cytochrome P450 1A (Homo sapiens, UniProt P04798+P05177).
T2 sequence (P04798 whole entry): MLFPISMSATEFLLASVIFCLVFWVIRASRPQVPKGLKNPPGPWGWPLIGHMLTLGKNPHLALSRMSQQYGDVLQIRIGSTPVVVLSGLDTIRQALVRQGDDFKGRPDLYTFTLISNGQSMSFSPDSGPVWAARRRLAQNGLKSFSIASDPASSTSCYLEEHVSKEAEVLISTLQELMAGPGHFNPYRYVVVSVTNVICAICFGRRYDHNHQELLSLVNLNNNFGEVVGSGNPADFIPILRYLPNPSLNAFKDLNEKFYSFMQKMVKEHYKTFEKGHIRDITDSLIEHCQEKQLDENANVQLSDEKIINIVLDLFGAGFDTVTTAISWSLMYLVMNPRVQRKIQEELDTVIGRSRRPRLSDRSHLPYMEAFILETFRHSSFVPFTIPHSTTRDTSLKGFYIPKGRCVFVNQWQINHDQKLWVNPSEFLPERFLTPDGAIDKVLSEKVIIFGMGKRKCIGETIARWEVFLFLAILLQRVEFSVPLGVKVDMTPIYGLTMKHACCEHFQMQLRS
T2 sequence (P05177 whole entry): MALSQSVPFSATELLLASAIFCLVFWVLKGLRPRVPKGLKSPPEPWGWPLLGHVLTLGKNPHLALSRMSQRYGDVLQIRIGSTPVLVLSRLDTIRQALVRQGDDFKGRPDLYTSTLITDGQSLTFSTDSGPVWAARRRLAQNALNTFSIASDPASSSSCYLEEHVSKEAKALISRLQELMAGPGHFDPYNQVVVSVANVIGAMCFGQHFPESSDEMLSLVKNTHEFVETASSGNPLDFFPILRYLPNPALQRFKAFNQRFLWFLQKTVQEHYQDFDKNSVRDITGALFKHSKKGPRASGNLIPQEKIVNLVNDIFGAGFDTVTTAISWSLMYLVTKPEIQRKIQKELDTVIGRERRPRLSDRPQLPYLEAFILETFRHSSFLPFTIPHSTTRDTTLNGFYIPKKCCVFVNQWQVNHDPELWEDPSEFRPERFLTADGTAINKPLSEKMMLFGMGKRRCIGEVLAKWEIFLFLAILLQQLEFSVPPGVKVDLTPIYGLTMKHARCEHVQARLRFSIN
In words: Inhibition of CYP1A at > 25 uM. The series is classed as ADME.

A short description of a further series: in vitro. The note with it: human, liver microsomes.
Series [7] is described as follows: Half life in human liver microsomes. The series is classed as ADME, Microsome.

In brackets after ≈: the same amount, converted by molar mass.

T1 sequence (P11413 whole entry): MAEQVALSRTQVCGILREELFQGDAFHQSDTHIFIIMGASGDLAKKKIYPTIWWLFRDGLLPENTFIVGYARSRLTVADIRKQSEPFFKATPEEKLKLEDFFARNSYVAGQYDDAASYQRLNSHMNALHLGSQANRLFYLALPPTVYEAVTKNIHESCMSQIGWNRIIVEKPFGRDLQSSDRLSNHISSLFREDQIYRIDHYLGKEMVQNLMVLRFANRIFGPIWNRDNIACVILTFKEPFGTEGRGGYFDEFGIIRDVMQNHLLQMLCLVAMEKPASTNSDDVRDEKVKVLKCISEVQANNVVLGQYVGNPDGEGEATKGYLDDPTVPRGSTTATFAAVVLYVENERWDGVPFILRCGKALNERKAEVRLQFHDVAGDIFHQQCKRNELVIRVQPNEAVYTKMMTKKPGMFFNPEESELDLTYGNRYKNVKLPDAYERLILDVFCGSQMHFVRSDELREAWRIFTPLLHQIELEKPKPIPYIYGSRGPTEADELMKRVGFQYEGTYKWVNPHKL

The compound `COC(=O)N[C@H]1CC[C@@]2(C)[C@@H](CC[C@@H]3[C@@H]2CC[C@]2(C)C(=O)CC[C@@H]32)C1` came in with a kinetic solubility in series [1] above 100 µM. In addition, in series [2], the Ratio IC50 came to 5.2. In addition, the half-inhibitory concentration (IC50) in series [3] was 1.5 µM; in [4] it was 7.8 µM.
In turn, `CC(=O)[C@H]1CC[C@H]2[C@@H]3CC[C@H]4C[C@@H](NS(N)(=O)=O)CC[C@]4(C)[C@H]3CC[C@]12C` displayed a kinetic solubility in series [1] of 10 µM (≈ 3.97 µg/mL). The Ratio IC50 in series [2] is 4.6. The IC50 in series [3] came to 2 µM; in series [4] it was 9.2 µM. In addition, the Papp A→B in series [5] was 2.1 ×10⁻⁶ cm/s. In series [6], the efflux ratio was found to be 0.53.
On to `C[C@]12CC[C@H](O)CC1=CC[C@@H]1[C@@H]2CC[C@]2(C)C(=O)CC[C@@H]12` [PRASTERONE], for which, in series [1], the kinetic solubility was above 100 µM. Moreover, the Ratio IC50 in series [2] is 2.2. The values for the half-inhibitory concentration (IC50) in series [3] and in series [4] were 11.3 µM and 24.9 µM, respectively.
With `C[C@]12CC[C@H](O)C[C@@H]1CC[C@@H]1[C@@H]2CC[C@]2(C)[C@@H](C(=O)CO)CC[C@@H]12`, in [1], the kinetic solubility was above 100 µM. Besides, in [2], the Ratio IC50 came to 13.7. Moreover, the “inhibition (INH)” value against Cytochrome P450 2D6, at Cytochrome P450 2C9, against Cytochrome P450 3A4, against Cytochrome P450 2C19 and against Cytochrome P450 1A was “Not Active” throughout. Also, the figures for the IC50 in [3] and in series [4] were 0.9 µM and 12.3 µM, respectively.
Turning to `C[C@]12CC[C@H](NS(N)(=O)=O)C[C@@H]1CC[C@@H]1[C@@H]2CC[C@]2(C)C(=O)CC[C@@H]12`, the solubility (kinetic) in series [1] stood at 30 µM (≈ 11.1 µg/mL). Further, the Ratio IC50 in [2] came to 14.5. Besides, the IC50 in series [3] was determined as 1.2 µM; in series [4], 17.4 µM. In addition, in series [5], the Papp A→B came to 31.8 ×10⁻⁶ cm/s. The efflux ratio in series [6] turned out to be 0.66.
In series [1], `CC(=O)[C@H]1CC[C@H]2[C@@H]3CC[C@H]4C[C@@H](NS(C)(=O)=O)CC[C@]4(C)[C@H]3CC[C@]12C` had a solubility (kinetic) of 3 µM (≈ 1.19 µg/mL). In addition, in series [2], the Ratio IC50 came out at 1.4. The IC50 in series [3] was found to be 3.4 µM; in [4], 4.8 µM. The same compound had a microsomal CLint in “in vitro” of 10.3 µL/min/mg. The half-life in [7] worked out at 135 min.
As for `CCNC(=O)N[C@H]1CC[C@@]2(C)[C@@H](CC[C@@H]3[C@@H]2CC[C@]2(C)C(=O)CC[C@@H]32)C1`, in [1], the solubility (kinetic) amounted to 30 µM (≈ 10.8 µg/mL). The Ratio IC50 in series [2] turned out to be 9.5. Also, the IC50 in series [3] worked out at 1 µM; in series [4] it was 9.5 µM. The Papp A→B in [5] is 31.6 ×10⁻⁶ cm/s. Further, the efflux ratio in series [6] amounted to 0.54. The compound further returned a microsomal CLint in “in vitro” of 56.8 µL/min/mg. The half-life in series [7] came to 24.4 min.
For `C[C@]12CC[C@H](NS(C)(=O)=O)C[C@@H]1CC[C@@H]1[C@@H]2CC[C@]2(C)[C@@H](C(=O)CO)CC[C@@H]12`, in series [1], the kinetic solubility was 10 µM (≈ 4.12 µg/mL). For the same compound, the Ratio IC50 in [2] was 9.2. Further, the IC50 in [3] turned out to be 3.8 µM; in series [4], 35.2 µM. Besides, the Papp A→B in series [5] worked out at 17.4 ×10⁻⁶ cm/s. Also, in series [6], the efflux ratio stood at 0.3.
Consider `CC(=O)[C@H]1CC[C@H]2[C@@H]3CC=C4C[C@@H](O)CC[C@]4(C)[C@H]3CC[C@]12C` [PREGNENOLONE], for which the IC50 in series [3] came to 81.4 µM.
Regarding `C[C@]12CC[C@H](NS(N)(=O)=O)C[C@@H]1CC[C@@H]1[C@@H]2CC[C@]2(C)[C@@H](C(=O)CO)CC[C@@H]12`, in series [1], the kinetic solubility was above 100 µM. For the same compound, in [2], the Ratio IC50 came to 11.8. Moreover, the IC50 is 1.2 µM in [3] and 14.1 µM in [4]. In addition, the Papp A→B in series [5] is 13.1 ×10⁻⁶ cm/s. Moreover, the efflux ratio in series [6] was found to be 0.49. In “in vitro”, this compound displayed a microsomal CLint of 28.3 µL/min/mg. The half-life in series [7] turned out to be 48.9 min.
For `C[C@]12CC[C@H](NC(N)=O)C[C@@H]1CC[C@@H]1[C@@H]2CC[C@]2(C)C(=O)CC[C@@H]12`, the IC50 in series [3] worked out at 5 µM.
For `C[C@]12CC[C@H](O)C[C@@H]1CC[C@@H]1[C@@H]2CC[C@]2(C)C(=O)CC[C@@H]12` [EPIANDROSTERONE], the half-inhibitory concentration (IC50) in series [3] was 9.4 µM.
With `CCS(=O)(=O)N[C@H]1CC[C@@]2(C)[C@@H](CC[C@@H]3[C@@H]2CC[C@]2(C)[C@@H](C(C)=O)CC[C@@H]32)C1`, the IC50 in [3] came out at 11 µM.
As for `C[C@]12CC[C@H](N)C[C@@H]1CC[C@@H]1[C@@H]2CC[C@]2(C)C(=O)CC[C@@H]12`, in series [3], the IC50 is above 200 µM.

For the origin of these results see ChEMBL document CHEMBL2057131, “Novel steroid inhibitors of glucose 6-phosphate dehydrogenase” (J Med Chem, 2012).
